Source: article PMC8241045, “Improving anti-tumor activity of sorafenib tosylate by lipid- and polymer-coated nanomatrix” (Drug Delivery, 2017)
In brackets after ≈: the same amount, converted by molar mass. Where a name gives a salt, the structure may show the parent alone. Read-outs that look alike come from different tables or passages of the source. Blank lines part the entries; values can stand above or below the molecule they belong to.

Columns and labels:
MDA-MB-231 cells = test: In vitro cytotoxicity, sulforhodamine B assay; assay type: cell-based; details: Homo sapiens, 48 h, SRB assay, n = 3
Experimental: The cytotoxicity of MSNM@SFN against MDA-MB-231 cells was measured by sulforhodamine B assay (SRB assay). Briefly, MDA-MB-231 cells (1 × 10^4 cells per well) were seeded in a 96-well plate and grown in medium for 24 h. Then, the cells were treated with cell culture medium containing the different amounts of MSNM@SFN for 48 h at 37 °C. The cell viability was determined by SRB assay. Absorbance was measured at 540 nm using a 96-well plate reader (model 680; Bio-Rad Laboratories, Hercules, CA). The survival percentages were calculated using the formula: survival % = (A540 nm for the treated cells/A540 nm for the control cells) × 100%, where A540 nm is the absorbance value. Each assay was carried out in triplicate. Finally, dose–effect curves were constructed and IC50 values were calculated.

[1] = cited from earlier work
[2] = very low aqueous solubility in GI fluids, high permeability; cited from earlier work
[3] = Solubility in distilled water (shake-flask, HPLC); assay type: physicochemical; details: thermodynamic from solid, 37 °C

- solubility at 48 h ([3]; 48 h, read-out: Solubility of SFN): < 0.1 µg/mL
Structure (SMILES): CNC(=O)c1cc(Oc2ccc(NC(=O)Nc3ccc(Cl)c(C(F)(F)F)c3)cc2)ccn1 [SFN, Sorafenib tosylate]
- IC50 (MDA-MB-231 cells): 5.84 ± 0.17 µM
- LogP [1]: 3.8
- BCS class [2]: BCS II

- solubility at 48 h ([3]; water, read-out: Solubility of PTX): 0.17 ± 0.02 µg/mL (≈ 0.199 µM)
Structure (SMILES): CC(=O)O[C@H]1C(=O)[C@@]2(C)[C@H]([C@H](OC(=O)c3ccccc3)[C@]3(O)C[C@H](OC(=O)[C@H](O)[C@@H](NC(=O)c4ccccc4)c4ccccc4)C(C)=C1C3(C)C)[C@]1(OC(C)=O)CO[C@@H]1C[C@@H]2O [PTX, paclitaxel]

- solubility at 48 h ([3]; water, read-out: Solubility of SN38): < 0.01 µg/mL
Structure (SMILES): CCc1c2c(nc3ccc(O)cc13)-c1cc3c(c(=O)n1C2)COC(=O)[C@]3(O)CC [SN38, 7-ethyl-10-hydroxycamptothecin]
